According to US20230024442A1, “BIFUNCTIONAL COMPOUNDS FOR GRADING BTK VIA UBIQUITIN PROTEOSOME PATHWAY” (NURIX THERAPEUTICS, INC., priority 2019, published 2023):

Target: T1, BTK (Homo sapiens, UniProt Q06187)
T1 construct: endogenous in cells; host or cells: Ramos (ATCC CRL-1596)
Assay: Cellular BTK HTRF Assay (BTK levels in Ramos cells)
Assay type: cell-based
Settings: Ramos cells, 50,000 cells, incubated four hours at 37° C.; BTK levels by Cisbio Total-BTK HTRF relative to DMSO-treated cells
Procedure: Ramos (CRL-1596) cells were obtained from American Type Culture Collection and were grown in RPMI-1640 media (ATCC, 30-2001) supplemented with 10% heat-inactivated FBS (Corning Premium Fetal Bovine Serum from Fisher, MT35015CV).
Compounds of the present invention were added to 50,000 Ramos cells in round-bottom 96 well plates with a final DMSO concentration of […] and were incubated at 37° C. 5% CO2 for four hours. BTK levels were determined using Cisbio Total-BTK HTRF ([…] Time-Resolved Fluorescence) kit (63ADK064PEG) according to manufacturer's protocol. Briefly, cells were incubated in 1× supplied lysis buffer for 30 minutes. In an opaque white low volume 96 well plate (Cisbio, 66PL96005), cell lysate was combined with two different specific BTK antibodies, one conjugated with Eu^3+-Cryptate FRET donor and one conjugated with d2 FRET acceptor. Assay controls include wells containing cell lysate with only the Eu^3+-Cryptate FRET donor antibody and wells containing both HTRF antibodies and lysis buffer without cells or control lysate provided by Cisbio. HTRF ratio was calculated as (acceptor signal at 665 nm/donor signal at 620 nm)×10^4. Background HTRF levels were determined from the control well containing the donor, but no acceptor, antibody. Background HTRF levels were subtracted from all samples. Readouts were reported as HTRF levels relative to HTRF levels of DMSO-treated cells. Four-parameter non-linear regressions were performed in GraphPad Prism 7.02 to obtain DC50 values. DC50 values are provided in Table 7, wherein A<1 nM, 1 nM≤B≤10 nM, and 10 nM<C<1 μM.

T1 sequence (Q06187 whole entry): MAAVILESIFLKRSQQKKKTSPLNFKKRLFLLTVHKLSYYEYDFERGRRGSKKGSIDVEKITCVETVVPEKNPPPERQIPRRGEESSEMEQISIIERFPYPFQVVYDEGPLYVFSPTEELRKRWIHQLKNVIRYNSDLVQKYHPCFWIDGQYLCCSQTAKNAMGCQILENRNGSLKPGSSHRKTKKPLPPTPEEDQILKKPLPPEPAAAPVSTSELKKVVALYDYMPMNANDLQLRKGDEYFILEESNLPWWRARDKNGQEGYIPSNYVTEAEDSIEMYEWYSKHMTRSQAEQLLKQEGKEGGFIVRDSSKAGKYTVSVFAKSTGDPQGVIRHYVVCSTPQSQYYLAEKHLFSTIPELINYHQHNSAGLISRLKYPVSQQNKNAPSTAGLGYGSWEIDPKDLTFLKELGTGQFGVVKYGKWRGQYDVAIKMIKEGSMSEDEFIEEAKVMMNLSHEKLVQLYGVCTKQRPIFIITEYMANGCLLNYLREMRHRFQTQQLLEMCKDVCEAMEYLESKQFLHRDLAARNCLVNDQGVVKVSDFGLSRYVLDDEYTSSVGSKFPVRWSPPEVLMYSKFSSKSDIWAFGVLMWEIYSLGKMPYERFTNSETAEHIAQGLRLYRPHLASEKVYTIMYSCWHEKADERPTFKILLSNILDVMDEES

SMILES | DC50 [nM]
Cn1cc(-c2ccnc(-n3ncc4cc(C(C)(C)C)cc(F)c4c3=O)c2CO)cc(Nc2cc3n(n2)CCN(C(=O)[C@H]2C[C@@H](OCCCc4cccc5c4CN(C4CCC(=O)NC4=O)C5=O)C2)C3)c1=O (some centres unmarked) [Compound 17] | 10 to 1000
CN[C@@H](C)C(=O)N[C@H](C(=O)N1CCC[C@H]1c1nc(C(=O)c2cccc(OCCOCCC(=O)N3CCn4nc(Nc5cc(-c6ccnc(-n7ncc8cc(C(C)(C)C)cc(F)c8c7=O)c6CO)cn(C)c5=O)cc4C3)c2)cs1)C1CCCCC1 [Compound 6, (S)—N—((S)-2-((S)-2-(4-(3-(2-(3-(2-((2′-(6-(tert-butyl)-8-fluoro-1-oxophthalazin-2(1H)-yl)-3′-(hydroxymethyl)-1-methyl-6-oxo-1,6-dihydro-[3,4′-bipyridin]-5-yl)amino)-6,7-dihydropyrazolo[1,5-a]pyrazin-5(4H)-yl)-3-oxopropoxy)ethoxy)benzoyl)thiazol-2-yl)pyrrolidin-1-yl)-1-cyclohexyl-2-oxoethyl)-2-(methylamino)propanamide] | 10 to 1000
Cn1cc(-c2ccnc(-n3ncc4cc(C(C)(C)C)cc(F)c4c3=O)c2CO)cc(Nc2cc3n(n2)CCN(C(=O)CCNc2cccc4c2C(=O)N(C2CCC(=O)NC2=O)C4=O)C3)c1=O (centres unmarked) [Compound 10] | 10 to 1000
C[C@H]1CN(C(=O)CN2CCN(Cc3cccc4c3CN(C3CCC(=O)NC3=O)C4=O)CC2)CCN1c1ccc(Nc2cc(-c3ccnc(N4CCn5c(cc6c5CC(C)(C)C6)C4=O)c3CO)cn(C)c2=O)nc1 (some centres unmarked) [Compound 27] | 10 to 1000
CN[C@@H](C)C(=O)N[C@H](C(=O)N1C[C@@H](NC(=O)CCOCCC(=O)N2CCn3nc(Nc4cc(-c5ccnc(-n6ncc7cc(C(C)(C)C)cc(F)c7c6=O)c5CO)cn(C)c4=O)cc3C2)C[C@H]1C(=O)N[C@@H]1CCCc2ccccc21)C1CCCCC1 [Compound 4, (2S,4S)-4-(3-(3-(2-((2′-(6-(tert-butyl)-8-fluoro-1-oxophthalazin-2(1H)-yl)-3′-(hydroxymethyl)-1-methyl-6-oxo-1,6-dihydro-[3,4′-bipyridin]-5-yl)amino)-6,7-dihydropyrazolo[1,5-a]pyrazin-5(4H)-yl)-3-oxopropoxy)propanamido)-1-((S)-2-cyclohexyl-2-((S)-2-(methylamino)propanamido)acetyl)—N—((R)-1,2,3,4-tetrahydronaphthalen-1-yl)pyrrolidine-2-carboxamide] | 10 to 1000
C[C@@H]1CN(C(=O)NCCCCCCOCCCc2cccc3c2CN(C2CCC(=O)NC2=O)C3=O)CCN1c1ccc(Nc2cc(-c3ccnc(N4CCn5c(cc6c5CC(C)(C)C6)C4=O)c3CO)cn(C)c2=O)nc1 (some centres unmarked) [Compound 48] | 1 to 10
Cn1cc(-c2ccnc(-n3ncc4cc(C(C)(C)C)cc(F)c4c3=O)c2CO)cc(Nc2cc3n(n2)CCN(C(=O)CNc2cccc4c2C(=O)N(C2CCC(=O)NC2=O)C4=O)C3)c1=O (centres unmarked) [Compound 12] | 1 to 10
C[C@H]1CN(C(=O)CN2CCN(CCCc3cccc4c3CN(C3CCC(=O)NC3=O)C4=O)CC2)CCN1c1ccc(Nc2cc(-c3ccnc(N4CCn5c(cc6c5CC(C)(C)C6)C4=O)c3CO)cn(C)c2=O)nc1 (some centres unmarked) [Compound 30] | 1 to 10
CN[C@@H](C)C(=O)N[C@H](C(=O)N1CCC[C@H]1c1nc(C(=O)c2cccc(OCCOCCOCCOCCC(=O)N3CCn4nc(Nc5cc(-c6ccnc(-n7ncc8cc(C(C)(C)C)cc(F)c8c7=O)c6CO)cn(C)c5=O)cc4C3)c2)cs1)C1CCCCC1 (stereo in doubt) [Compound 7, (S)—N—((S)-2-((S)-2-(4-(3-(2-(2-(2-(3-(2-((2′-(6-(tert-butyl)-8-fluoro-1-oxophthalazin-2(1H)-yl)-3′-(hydroxymethyl)-1-methyl-6-oxo-1,6-dihydro-[3,4′-bipyridin]-5-yl)amino)-6,7-dihydropyrazolo[1,5-a]pyrazin-5(4H)-yl)-3-oxopropoxy)ethoxy)ethoxy)ethoxy)benzoyl)thiazol-2-yl)pyrrolidin-1-yl)-1-cyclohexyl-2-oxoethyl)-2-(methylamino)propanamide] | 10 to 1000
C[C@H]1CN(C(=O)CCNc2cccc3c2C(=O)N(C2CCC(=O)NC2=O)C3=O)CCN1c1ccc(Nc2cc(-c3ccnc(N4CCn5c(cc6c5CC(C)(C)C6)C4=O)c3CO)cn(C)c2=O)nc1 (some centres unmarked) [Compound 36] | 10 to 1000
Cn1cc(-c2ccnc(-n3ncc4cc(C(C)(C)C)cc(F)c4c3=O)c2CO)cc(Nc2cc3n(n2)CCN(C(=O)CCCc2cccc4c2CN(C2CCC(=O)NC2=O)C4=O)C3)c1=O (centres unmarked) [Compound 13] | 10 to 1000

Now from value to compound:

DC50 [nM] | SMILES
1 to 10 | C[C@H]1CN(C(=O)CCCN2CCN(c3cc4c(cc3F)C(=O)N(C3CCC(=O)NC3=O)C4=O)CC2)CCN1c1ccc(Nc2cc(-c3ccnc(N4CCn5c(cc6c5CC(C)(C)C6)C4=O)c3CO)cn(C)c2=O)nc1 (some centres unmarked) [Compound 58]
1 to 10 | C[C@H]1CN(C(=O)CCOCCOCCOCCCc2cccc3c2CN(C2CCC(=O)NC2=O)C3=O)CCN1c1ccc(Nc2cc(-c3ccnc(N4CCn5c(cc6c5CC(C)(C)C6)C4=O)c3CO)cn(C)c2=O)nc1 (some centres unmarked) [Compound 49]
< 1 | C[C@H]1CN(C(=O)[C@H]2C[C@@H](OCCNc3cccc4c3C(=O)N(C3CCC(=O)NC3=O)C4=O)C2)CCN1c1ccc(Nc2cc(-c3ccnc(N4CCn5c(cc6c5CC(C)(C)C6)C4=O)c3CO)cn(C)c2=O)nc1 (some centres unmarked) [Compound 25]
< 1 | C[C@@H]1CN(CCOCCNc2cccc3c2C(=O)N(C2CCC(=O)NC2=O)C3=O)CCN1c1ccc(Nc2cc(-c3ccnc(N4CCn5c(cc6c5CC(C)(C)C6)C4=O)c3CO)cn(C)c2=O)nc1 (some centres unmarked) [Compound 40]
1 to 10 | Cn1cc(-c2ccnc(-n3ncc4cc(C(C)(C)C)cc(F)c4c3=O)c2CO)cc(Nc2cc3n(n2)CCN(CCCc2cccc4c2CN(C2CCC(=O)NC2=O)C4=O)C3)c1=O (centres unmarked) [Compound 20]
1 to 10 | Cn1cc(-c2ccnc(-n3ncc4cc(C(C)(C)C)cc(F)c4c3=O)c2CO)cc(Nc2cc3n(n2)CCN(C(=O)CCCCc2cccc4c2CN(C2CCC(=O)NC2=O)C4=O)C3)c1=O (centres unmarked) [Compound 11]
< 1 | C[C@H]1CN(C(=O)CCOCCOCCOCCOCCOCCCc2cccc3c2CN(C2CCC(=O)NC2=O)C3=O)CCN1c1ccc(Nc2cc(-c3ccnc(N4CCn5c(cc6c5CC(C)(C)C6)C4=O)c3CO)cn(C)c2=O)nc1 (some centres unmarked) [Compound 53]
1 to 10 | C[C@@H]1CN(C(=O)CCOCCOCCOCCOCCOCCNc2cccc3c2C(=O)N(C2CCC(=O)NC2=O)C3=O)CCN1c1ccc(Nc2cc(-c3ccnc(N4CCn5c(cc6c5CC(C)(C)C6)C4=O)c3CO)cn(C)c2=O)nc1 (some centres unmarked) [Compound 50]
1 to 10 | C[C@H]1CN(C(=O)CN2CCN(CCCc3cccc4c3C(=O)N(C3CCC(=O)NC3=O)C4=O)CC2)CCN1c1ccc(Nc2cc(-c3ccnc(N4CCn5c(cc6c5CC(C)(C)C6)C4=O)c3CO)cn(C)c2=O)nc1 (some centres unmarked) [Compound 32]
1 to 10 | C[C@H]1CN(C(=O)[C@H]2CC[C@H](Nc3cccc4c3C(=O)N(C3CCC(=O)NC3=O)C4=O)CC2)CCN1c1ccc(Nc2cc(-c3ccnc(N4CCn5c(cc6c5CC(C)(C)C6)C4=O)c3CO)cn(C)c2=O)nc1 (some centres unmarked) [Compound 31]
1 to 10 | C[C@@H]1CN(C(=O)CCOCCOCCOCCOCCCc2cccc3c2CN(C2CCC(=O)NC2=O)C3=O)CCN1c1ccc(Nc2cc(-c3ccnc(N4CCn5c(cc6c5CC(C)(C)C6)C4=O)c3CO)cn(C)c2=O)nc1 (some centres unmarked) [Compound 54]
1 to 10 | C[C@H]1CN(C(=O)CCOCCCc2cccc3c2CN(C2CCC(=O)NC2=O)C3=O)CCN1c1ccc(Nc2cc(-c3ccnc(N4CCn5c(cc6c5CC(C)(C)C6)C4=O)c3CO)cn(C)c2=O)nc1 (some centres unmarked) [Compound 43]
1 to 10 | C[C@@H]1CN(C(=O)CCCN2CCN(c3ccc4c(c3)C(=O)N(C3CCC(=O)NC3=O)C4=O)CC2)CCN1c1ccc(Nc2cc(-c3ccnc(N4CCn5c(cc6c5CC(C)(C)C6)C4=O)c3CO)cn(C)c2=O)nc1 (some centres unmarked) [Compound 56]
1 to 10 | C[C@H]1CN(C(=O)CCCNc2cccc3c2C(=O)N(C2CCC(=O)NC2=O)C3=O)CCN1c1ccc(Nc2cc(-c3ccnc(N4CCn5c(cc6c5CC(C)(C)C6)C4=O)c3CO)cn(C)c2=O)nc1 (some centres unmarked) [Compound 37]
1 to 10 | C[C@@H]1CN(C(=O)N(C)CCOCCOCCOCCOCCCc2cccc3c2CN(C2CCC(=O)NC2=O)C3=O)CCN1c1ccc(Nc2cc(-c3ccnc(N4CCn5c(cc6c5CC(C)(C)C6)C4=O)c3CO)cn(C)c2=O)nc1 (some centres unmarked) [Compound 44]
